Test results reported in paper PMC5520492, “Inhibition of DNA2 nuclease as a therapeutic strategy targeting replication stress in cancer cells” (Oncogenesis, 2017).

Columns and labels:
U2OS SSA reporter cells = experiment: Single strand annealing (SSA) GFP reporter assay; type: cell-based, human; details: 24-h treatment
Description: The DR-green fluorescent protein, pCAGGS and pCBASce plasmids were kindly provided by Dr Maria Jasin (Memorial Sloan-Kettering Cancer Center, New York, NY, USA). U2OS cells containing a single copy of the HR repair reporter substrate DR-green fluorescent protein were generated as previously described.[48] Single stand annealing reporter cells were kindly provided by Dr Jeremy Stark (Beckman Research Institute of the City of Hope, Duarte, CA, USA).[49] Details in Supplementary Materials and Methods.
Figure S6. NSC-105808 reduces DSB repair by SSA. Cells were transfected with EGFP or I-SceI plasmids for 24 hrs and then cultured for an additional 48 hr before analysis by flow cytometry (top). Treatment with NSC-105808 was for 24 hrs prior to flow cytometry. Bar graph showing SSA efficiency in cells treated with NSC-105808 as compared to control cells treated with DMSO. The average data from three independent experiments are shown, with the error bars representing standard deviation (n=3, bottom).
The GFP expressing plasmid (pEGFP-C1) was used for transfection efficiency control. Cells were transfected with the pCBASce plasmid. […] Efficiency of HR and SSA was calculated by normalizing I-SceI-induced GFP expression with EGFP transfection-induced GFP expression. […]

U2OS cells = experiment: RPA phosphorylation after camptothecin (immunofluorescence, chromatin fractionation); type: cell-based, human; details: NSC-105808 2 h, 0.3 μM; CPT 2 h, 1 μM
Procedure: Figure 4 NSC-105808 inhibits HR repair and DSB end resection. (a) Analysis of HR efficiency with the DR-green fluorescent protein (GFP) assay. Representative images of flow cytometry analysis and bar graph showing percentage of GFP cells from at least three independent experiments. Each value represents the mean±s.d. (b, c) Analysis of RPA phosphorylation in U2OS cells treated with NSC-105808 (2 h, 0.3 μM) and/or camptothecin (CPT; 2 h, 1 μM). (b) Representative images of cells subjected to immunofluorescent staining of p-RPA and bar graph showing percentage of cells with positive p-RPA staining from three independent experiments. Each value represents the mean±s.d. (c) Western blot analysis of chromatin fraction with the indicated antibodies. (d) Analysis of colony formation by FANCD2 (+/+) and FANCD2 (−/−) cells treated with cisplatin and/or NSC-105808. Each value is relative to the untreated control group of each cell line. The graph represents the mean±s.e.m. from three independent experiments. *P<0.01.
For the detection of DNA damage-induced p-RPA34 (S4/S8), immunofluorescent staining, and the preparation of chromatin fractions and western blot analyses were performed as described previously.[33], [48]

NC1=C(Br)C(=O)c2ncccc2C1=O [NSC-105808, 6-amino-7-bromoquinoline-5,8-dione] was tested, and the “DSB repair by single stand annealing” value (U2OS SSA reporter cells) was “significantly reduced”, the “Accumulation of camptothecin-induced p-RPA” value (U2OS cells) was “significantly attenuated” and the “γ-H2AX level in chromatin fraction” value (U2OS cells) was “concomitant enhancement”.
